Assay results published in patent US5221677A, “5-lipoxygenase inhibitors quinoline or isoquinoline derivatives” (Imperial Chemical Industries PLC, priority 1989, dated 1993).

Assays:
5-LO [1] = assay: In vitro heparinised human blood assay, A23187 challenge, LTB4 radioimmunoassay (test b); format: cell-based
Method: b) An in vitro assay system involving incubating a test compound with heparinised human blood, prior to challenge with the calcium ionophore A23187 and then indirectly measuring the inhibitory effects on 5-LO by assaying the amount of LTB4 using the specific radioimmunoassay described by Carey and Forder (F. Carey and R. A. Forder, Brit. J. Pharmacol. 1985, 84, 34P) which involves the use of a protein-LTB4 conjugate produced using the procedure of Young et alia (Prostaglandins, 1983, 26(4), 605-613). The effects of a test compound on the enzyme cyclooxygenase (which is involved in the alternative metabolic pathway for arachidonic acid and gives rise to prostaglandins, thromboxanes and related metabolites) may be measured at the same time using the specific radioimmunoassay for thromboxane B2 (TxB2) described by Carey and Forder (see above). This test provides an indication of the effects of a test compound against 5-LO and also cyclooxygenase in the presence of blood cells and proteins. It permits the selectivity of the inhibitory effect on 5-LO or cyclooxygenase to be assessed.

5-LO [2] = assay: Ex vivo assay: administration of test compound, blood collection, A23187 challenge, LTB4 radioimmunoassay (test c); format: in vivo; details: oral
5-LO [3] = assay: Liberation of LTB4 induced by zymosan within an air pouch in male rats (test g); format: in vivo; details: 3 h, oral, rat air pouch
Method: g) An in vivo system involving measuring the effects of a test compound administered orally against the liberation of LTB4 induced by zymosan within an air pouch generated within the subcutaneous tissue of the back of male rats. The rats are anaesthetised and air pouches are formed by the injection of sterile air (20 ml). A further injection of air (10 ml) is similarly given after 3 days). At 6 days after the initial air injection the test compound is administered (usually orally as the supsension produced when a solution of the test compound in dimethylsulphoxide is added to hydroxypropylmethylcellulose), followed by the intrapouch injection of zymosan (1 ml of a 1% suspension in physiological saline). After 3 hours the rats are killed, the air pouches are lavaged with physiological saline, and the specific radioimmunoassay described above is used to assay LTB4 in washings. This test provides an indication of inhibitory effects against 5-LO in an inflammatory milieu.

IC50 (5-LO [1]): < 40 nM
SMILES: COC1(c2cccc(Sc3ccc4c(ccc(=O)n4C)c3)c2)CCOCC1 [Example 1, 4-[3-(1,2-dihydro-1-methyl-2-oxoquinolin-6-ylthio)phenyl]-4-methoxytetrahydropyran]
ED50 (5-LO [2]): 1.5 mg/kg | ED50 (5-LO [3]): 1 mg/kg
